In article PMC4028696, “Development of a screen to identify selective small molecules active against patient-derived metastatic and chemoresistant breast cancer cells” (Breast Cancer Research : BCR, 2013):

Tested on: MCF-7 cells
Experiment: BrdU proliferation and cell cycle analysis
Assay type: cell-based, human
Details: MCF-7, 15 μM, 24 or 48 hours vs DMSO
Protocol: Cells were seeded in six-well plates (BD Falcon) in their respective media at different densities to attain 70% to 80% confluency at the end of the assay. In order to compare the proliferation rate of established cell lines compared to patient-derived cells, 10 μM of 5-bromo-2-deoxyuridine (BrdU) (Sigma) was added to the culture media for 30 minutes or 6 hours in triplicate. To determine the impact of C-6 on the cell cycle, cells were treated with 15 μM C-6 or 0.02% (v/v) DMSO vehicle in the corresponding media containing 2% FBS for 24 and 48 hours in triplicate followed by treatment with 10 μM BrdU for 30 minutes. Immediately following BrdU treatment, floating cells were collected and adherent cells were trypsinized. Floating and adherent cells were combined, washed with HBSS containing 2% FBS, fixed with 70% ethanol and stored overnight at -20°C. Cells were then treated with 2 M HCl containing 0.5% Triton X-100 (EMD Millipore) for 30 minutes at room temperature and were washed with 0.1 M sodium tetraborate (Sigma) at pH = 8.5. Next, cells were blocked with staining buffer, which consisted of 1% BSA, 0.5% Tween-20 (Fisher Scientific) in PBS, for five minutes and were stained with a mouse monoclonal BrdU antibody (Developmental Studies Hybridoma Bank, Iowa City, IA, USA) for one hour on ice. Cells were subsequently washed and stained with anti-mouse Alexa Fluor® 488 (Life Technologies) for 30 minutes on ice, washed, stained with 5 μg/mL of propidium iodide (EMD Millipore) and passed through a 70-μm cell strainer. Cell suspensions were analyzed using a FACScan flow cytometer and the resulting data were analyzed with Flow Jo software. The average ± SD of three wells for each condition was calculated.

COc1cc(OC)cc(C(C)c2ccc(NC(=O)OC(C)(C)C)cc2)c1 (stereo not shown) [C-6]
percentage of cells in G1/G0: increased
